Test results taken from patent US7256268B1, “Human high affinity choline transporter” (University of Florida Research Foundation, priority 2000, dated 2007).

Tests used:
[1] = system: low affinity choline transporter, LACT; conditions: synaptosome preparations; cited from earlier work
human HACT = molecular target: T1, human HACT (Homo sapiens, UniProt Q9GZV3); assay: transporter assay for high affinity choline uptake (tritiated choline chloride) in transfected or infected cells; assay type: cell-based; conditions: 10 nM of Hemicholinium-3; cells expressing recombinant human HACT (FIG. 1: SF9 cells), 27° C., 30 min
T1 construct: expressed in transfected cells; host or cells: 293, HELA and SF9 cells (pcDNA, AAV proviral and baculoviral vectors)
T1 sequence (Q9GZV3 1-580): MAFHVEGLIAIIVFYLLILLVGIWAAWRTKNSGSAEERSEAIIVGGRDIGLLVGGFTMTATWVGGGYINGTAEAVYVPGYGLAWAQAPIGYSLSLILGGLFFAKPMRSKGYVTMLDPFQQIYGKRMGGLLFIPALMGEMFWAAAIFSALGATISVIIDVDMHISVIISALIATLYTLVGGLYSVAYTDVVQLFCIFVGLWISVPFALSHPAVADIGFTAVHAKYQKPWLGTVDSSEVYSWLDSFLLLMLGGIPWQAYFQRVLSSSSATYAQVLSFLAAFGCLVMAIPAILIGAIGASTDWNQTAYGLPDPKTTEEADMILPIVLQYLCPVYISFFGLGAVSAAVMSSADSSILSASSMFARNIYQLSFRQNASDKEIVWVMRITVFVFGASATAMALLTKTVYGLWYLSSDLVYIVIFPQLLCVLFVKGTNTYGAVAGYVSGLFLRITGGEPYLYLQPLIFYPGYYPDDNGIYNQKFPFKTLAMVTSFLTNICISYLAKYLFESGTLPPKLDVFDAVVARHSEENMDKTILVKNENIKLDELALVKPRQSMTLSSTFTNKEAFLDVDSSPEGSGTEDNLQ
Experimental: A transporter assay for high affinity choline uptake was carried out using 293, HELA, and SF9 cells that had been transfected or infected with expression vectors (several eukaryotic expression vectors including pcDNA, AAV proviral vector, and Baculoviral vectors were used) either with or without a cDNA encoding human HACT. Briefly, 2×10^5 cells were incubated with tritiated choline chloride and various amounts of Hemicholinium-3 in 500 microliter media (20 mM HEPES, pH 7.4, 140 mM NaCl, 4 mM KCl, 1 mM MgCl2, 1 mM CaCl2) at 27° C. for 30 min in each transporter assay. The cells were then pelleted and washed three times before they were solublized in 1N NaOH and the tritium content determined by liquid scintillation counting. […] Furthermore, the HACT activity was sensitive to 10 nM of Hemicholinium-3, which is characteristic of high affinity choline transporter. See e.g. Okuda et al. Nat. Neurosci. 3:120-5 (2000).

## C[N+]1(C)CCOC(O)(c2ccc(-c3ccc(C4(O)C[N+](C)(C)CCO4)cc3)cc2)C1.[Br-].[Br-] (centres unmarked) [hemicholinium-3]
[1]
  sensitivity of the low affinity uptake system to hemicholinium-3: insensitive
Human HACT
  sensitivity of HACT activity to Hemicholinium-3: sensitive
